This is an account of results in patent US6710081B1, “Erection insufficiency remedies” (priority 1999, dated 2004).

The subject of data set [1] is rat. The following applies: in vivo, iv. On the procedure:
It has been confirmed that the compounds of the present invention of formula (I) have sufficiently low toxicity and are sufficiently safe for use as pharmaceutical preparations. For example, the maximal tolerated dose of methyl ester of the compound of formula (I-1) was 30 mg/kg weight or more for rat intravenous administration.

Data set [2] relates to corpus cavernosum penis. Nature of the data set: Intracavernosal pressure increasing activity. Format: in vivo, beagle. The following applies: for Intracavernosal pressure increase: anesthetized beagle, intracavernosal injection, maximum up to 4 minutes from administration. The source says: Under anesthesia with thiopental, cannulae were indwelled in left cephalic vein (for infusion) and left femoral artery (for measuring blood pressure and heart rate) of a beagle. The epidermis was dissected from the top of penis to scrotum with an electrocautery to expose the albuguinea on the surface of the cavernous body. A cannula with a needle for measuring the inner pressure and administering a chemical was inserted into the cavernous body and (11α,15α,13E)-9-oxo-11,15-dihydroxy-16-(3-methoxy-methylphenyl)-17,18,19,20-tetranor-5-thiaprost-13-enoic acid methyl ester (methyl ester of the compound of formula (I-1) above, hereinafter abbreviated as methyl ester form) was administered in four kinds of dosage, i.e., 0.2, 2.0, 20, and 200 ng. As controls, 20 ng of PGE1 and physiological saline were used.
Through the cannula inserted into the corpus cavernosum penis, the chemical was injected in amounts of 100 μl and was followed by 300 μl saline injection. A difference between the maximum intra pressures up to 4 minutes from the administration and the intra pressure at the time of administration was taken as the value of intracavernosal pressure increase.

Molecules are shown by their SMILES.

Molecule `COCc1cccc(C[C@H](O)/C=C/[C@H]2[C@H](O)CC(=O)[C@@H]2CCSCCCC(=O)OC)c1` [Methyl ester form, (11α,15α,13E)-9-oxo-11,15-dihydroxy-16-(3-methoxy-methylphenyl)-17,18,19,20-tetranor-5-thiaprost-13-enoic acid methyl ester] came in with a maximal tolerated dose in data set [1] not below 30 mg/kg weight. Also, the Intracavernosal pressure increase in data set [2] (dose 0.2 ng/100 μl) came to 4.3 ± 1.9 mmHg; in data set [2] (dose 2.0 ng/100 μl), 12.7 ± 8.7 mmHg; in data set [2] (dose 20 ng/100 μl), 28.3 ± 12.3 mmHg; in data set [2] (dose 200 ng/100 μl), 40.7 ± 16.6 mmHg. Further, the “Effect on intracavernosal pressure (in words)” value in data set [2] (beagle, 0.2 to 200 ng intracavernosal) was “increased the intracavernosal pressure dose-dependently”.
Consider `CCCCC[C@H](O)/C=C/[C@H]1[C@H](O)CC(=O)[C@@H]1CCCCCCC(=O)O` [PGE1, prostaglandin E1, reference compound], for which the Intracavernosal pressure increase in data set [2] (dose 20 ng/100 μl) is listed as 29.0 ± 12.5 mmHg.
